Values after ≈ are worked out from the molar mass of the structure shown.
How the values were obtained:
[1] = test system: Male Hartley guinea pigs; assay type: in vivo; details: 10 mg/kg i.v., UVA 90 minutes, 24 h after irradiation
Procedure: Male Hartley guinea pigs were intravenously administered test compounds at a dose of 10 mg/kg, and immediately exposed to UVA on their backs for 90 minutes.

[2] = test system: S. aureus FDA 209P JC-1; experiment: Antibacterial activity, MIC by agar dilution; assay type: cell-based; details: Staphylococcus aureus, FDA209P; laboratory standard strain, gram +
Excerpt: (§1) The strains employed were as follows:
(§2) Staphylococcus aureus (S. aureus)

[3] = test system: S. aureus HPC292; experiment: Antibacterial activity, MIC by agar dilution; assay type: cell-based; details: Staphylococcus aureus, clinically isolated strain, gram +
Excerpt: as §1, §2

[4] = test system: S. aureus HPC308; experiment: Antibacterial activity, MIC by agar dilution; assay type: cell-based; details: Staphylococcus aureus, clinically isolated strain, gram +
Excerpt: as §1, §2

[5] = test system: S. aureus HPC527; experiment: Antibacterial activity, MIC by agar dilution; assay type: cell-based; details: Staphylococcus aureus, clinically isolated strain, gram +
Excerpt: as §1, §2

[6] = test system: E. coli NIHJ JC-2; experiment: Antibacterial activity, MIC by agar dilution; assay type: cell-based; details: Escherichia coli, NIHJJC2; laboratory standard strain, gram -
Excerpt: as §1
Escherichia coli (E. coli)

[7] = test system: K. pneumoniae HNR828; experiment: Antibacterial activity, MIC by agar dilution; assay type: cell-based; details: Klebsiella pneumoniae, clinically isolated strain, gram -
Excerpt: as §1
(§3) Klebsiella pneumoniae (K. pneumoniae)

[8] = test system: K. pneumoniae HNR858; experiment: Antibacterial activity, MIC by agar dilution; assay type: cell-based; details: Klebsiella pneumoniae, clinically isolated strain, gram -
Excerpt: as §1, §3

[9] = test system: K. pneumoniae HNR869; experiment: Antibacterial activity, MIC by agar dilution; assay type: cell-based; details: Klebsiella pneumoniae, clinically isolated strain, gram -
Excerpt: as §1, §3

[10] = test system: K. pneumoniae PCI-602; experiment: Antibacterial activity, MIC by agar dilution; assay type: cell-based; details: Klebsiella pneumoniae, PCI602; laboratory standard strain, gram -
Excerpt: as §1, §3

[11] = test system: S. marcescens HNR1544; experiment: Antibacterial activity, MIC by agar dilution; assay type: cell-based; details: Serratia marcescens, clinically isolated strain, gram -
Excerpt: as §1
(§4) Serratia marcescens (S. marcescens)

[12] = test system: S. marcescens HNR1767; experiment: Antibacterial activity, MIC by agar dilution; assay type: cell-based; details: Serratia marcescens, clinically isolated strain, gram -
Excerpt: as §1, §4

[13] = test system: S. marcescens HNR1792; experiment: Antibacterial activity, MIC by agar dilution; assay type: cell-based; details: Serratia marcescens, clinically isolated strain, gram -
Excerpt: as §1, §4

[14] = test system: S. marcescens IAM 1184; experiment: Antibacterial activity, MIC by agar dilution; assay type: cell-based; details: Serratia marcescens, IAM1184; laboratory standard strain, gram -
Excerpt: as §1, §4

[15] = test system: E. cloacae 963; experiment: Antibacterial activity, MIC by agar dilution; assay type: cell-based; details: Enterobacter cloacae, laboratory standard strain, gram -
Excerpt: as §1
(§5) Enterobacter cloacae (E. cloacae)

[16] = test system: E. cloacae HNR1939; experiment: Antibacterial activity, MIC by agar dilution; assay type: cell-based; details: Enterobacter cloacae, clinically isolated strain, gram -
Excerpt: as §1, §5

[17] = test system: E. cloacae HNR1941; experiment: Antibacterial activity, MIC by agar dilution; assay type: cell-based; details: Enterobacter cloacae, clinically isolated strain, gram -
Excerpt: as §1, §5

[18] = test system: E. cloacae HNR1946; experiment: Antibacterial activity, MIC by agar dilution; assay type: cell-based; details: Enterobacter cloacae, clinically isolated strain, gram -
Excerpt: as §1, §5

[19] = test system: E. faecalis HPC948; experiment: Antibacterial activity, MIC by agar dilution; assay type: cell-based; details: Enterococcus faecalis, clinically isolated strain, gram +
Excerpt: as §1
(§6) Enterococcus faecalis (E. faecalis)

[20] = test system: E. faecalis HPC975; experiment: Antibacterial activity, MIC by agar dilution; assay type: cell-based; details: Enterococcus faecalis, clinically isolated strain, gram +
Excerpt: as §1, §6

[21] = test system: E. faecalis HPC984; experiment: Antibacterial activity, MIC by agar dilution; assay type: cell-based; details: Enterococcus faecalis, clinically isolated strain, gram +
Excerpt: as §1, §6

[22] = test system: A. calcoaceticus HNR904; experiment: Antibacterial activity, MIC by agar dilution; assay type: cell-based; details: Acinetobacter calcoaceticus, clinically isolated strain, gram -
Excerpt: as §1
(§7) Acinetobacter calcoaceticus (A. calcoaceticus)

[23] = test system: A. calcoaceticus HNR916; experiment: Antibacterial activity, MIC by agar dilution; assay type: cell-based; details: Acinetobacter calcoaceticus, clinically isolated strain, gram -
Excerpt: as §1, §7

[24] = test system: A. calcoaceticus HNR939; experiment: Antibacterial activity, MIC by agar dilution; assay type: cell-based; details: Acinetobacter calcoaceticus, clinically isolated strain, gram -
Excerpt: as §1, §7

[25] = test system: CHL cells; experiment: Chromosomal aberration test with a Chinese hamster lung cell line (CHL); assay type: cell-based; details: Table 5-A; CHL cells, 100 μg/ml
Procedure: The chromosomal aberration test was conducted with a Chinese hamster lung cell line (CHL). 2-(2-Furyl)-3-(5-nitro-2-furyl)acrylamide was used as a positive control. Cells treated with the test compounds were cultured for 6 h at 37° C. in 5% CO2 -humidified air. Following the 6 h treatment the cells were washed. Fresh medium was added to the washed cells and they were cultured for a further 18 h. Colcemide was added to the cultures 2 h before the fixation of chromosome preparation, in order to collect metaphase cells.

[26] = test system: Male Wistar rats; experiment: Convulsions, intracerebroventricular (i.c.v.) administration with fenbufen; assay type: in vivo, rat; details: 20 μg i.c.v., fenbufen 50 mg/kg i.p.
Procedure: Male Wistar rats weighing 180-220 g were anesthetized with sodium pentobarbital (45 mg/kg, i.p.) and fixed in a stereotaxic apparatus. For the intracerebroventricular injection, a 0.6 mm diameter stainless steel guide cannula was implanted in each rat, being positioned 1.5 mm above the left lateral cerebroventricle (A: 6.2, R: 1.0, H: +1.0), according to the atlas of De Groot (1959). The guide cannula was fixed with dental cement on the skull and it was closed with a 0.3 mm diameter stainless steel stylet. To prevent infection, 10,000 units of potassium penicillin G were injected intramuscularly. The rats were allowed a few days to recover from the surgery.
For the measurement of convulsions, 30 min after intraperitoneal injection of 50 mg/kg of fenbufen, 20 μg of the test compounds was given through a 0.3 mm diameter of stainless steel cannula with a polyethylene catheter, which was 1.5 mm longer than the guide cannula in order to be inserted into the […] cerebroventricle (H: +1.0). […] The position of the intracerebroventricular cannula was confirmed by the injection of 10 μl of 1% evans blue followed by sectioning of the brain of each rat which had been used in the experiment.

[27] = test system: male ICR mice; experiment: Convulsions, intraperitoneal (i.p.) administration with fenbufen; details: 100 mg/kg i.p., fenbufen 100 mg/kg orally
Procedure: Thirty minutes later, they were injected intraperitoneally with the test compounds at a dose of 100 mg/kg. Thereafter, the onset of convulsions was recorded.

[28] = test system: polychromatic erythrocytes (PCEs); experiment: Micronucleus test, bone marrow of mice; assay type: in vivo, BDF 1 mice; details: percent of the number of MNPCEs per 1,000 PCEs; 250 mg/kg i.p., 24 h
Procedure: Nine-week-old male BDF 1 mice were used in this test. The test compounds were injected intraperitoneally with a dose of 250 mg/kg. After 24 h mice were sacrificed and the bone marrow of the femur was collected. Bone marrow smears were fixed on the slides with methanol and stained with Giemsa according to the usual method. For each animal, the number of micronucleated polychromatic erythrocytes (MNPCEs) per 1,000 polychromatic erythrocytes (PCEs) was counted under the microscope. Cyclophosphamide was used as a positive control.

MIC [2] [µg/mL] | MIC [3] [µg/mL] | MIC [4] [µg/mL] | MIC [5] [µg/mL] | MIC [6] [µg/mL] | MIC [7] [µg/mL] | MIC [8] [µg/mL] | MIC [9] [µg/mL] | MIC [10] [µg/mL] | MIC [11] [µg/mL] | MIC [12] [µg/mL] | MIC [13] [µg/mL] | MIC [14] [µg/mL] | MIC [15] [µg/mL] | MIC [16] [µg/mL] | MIC [17] [µg/mL] | MIC [18] [µg/mL] | MIC [19] [µg/mL] | MIC [20] [µg/mL] | MIC [21] [µg/mL] | SMILES | other results
 |  |  |  |  |  |  |  |  |  |  |  |  |  |  |  |  |  |  |  | O=C(O)c1cn(C2CC2)c2cc(N3CCNCC3)c(F)cc2c1=O [Ciprofloxacin, ciprofloxacin] | Frequency of chromosomal aberration [25]: - (<10%); Convulsions i.c.v.: number of animals with convulsions/number of animals tested [26]: 3/3; Convulsions i.p.: number of animals with convulsions/number of animals tested [27]: 3/6
 |  |  |  |  |  |  |  |  |  |  |  |  |  |  |  |  |  |  |  | O=P1(N(CCCl)CCCl)NCCCO1 (centres unmarked) [Cyclophosphamide, reference compound] | Incidence of MNPCEs [28]: 2.9%
0.025 | 1.56 | 0.39 | 0.025 | 0.05 (≈ 0.129 µM) | 12.5 (≈ 32.2 µM) | 0.39 (≈ 1 µM) | 3.13 (≈ 8.06 µM) | 0.003 (≈ 0.00772 µM) | 0.1 (≈ 0.257 µM) | 25 (≈ 64.4 µM) | 6.25 (≈ 16.1 µM) | 0.39 (≈ 1 µM) | 0.05 (≈ 0.129 µM) | 0.39 (≈ 1 µM) | 12.5 (≈ 32.2 µM) | 0.39 (≈ 1 µM) | 0.39 | 1.56 | 0.2 | Cc1c(N2C[C@@H](N)C(C)(C)C2)c(F)c(N)c2c(=O)c(C(=O)O)cn(C3CC3)c12 [Example 16, 5-Amino-7-((S)-3-amino-4,4-dimethyl-1-pyrrolidinyl)-1-cyclopropyl-6-fluoro-1,4-dihydro-8-methyl-4-oxoquinoline-3-carboxylic acid] | MIC [22]: 6.25 µg/mL (≈ 16.1 µM); MIC [23]: 0.025 µg/mL (≈ 0.0644 µM); MIC [24]: 0.39 µg/mL (≈ 1 µM)
0.025 | 6.25 | 0.78 | 0.05 | 0.025 (≈ 0.0668 µM) | 6.25 (≈ 16.7 µM) | 0.39 (≈ 1.04 µM) | 3.13 (≈ 8.36 µM) | 0.006 (≈ 0.016 µM) | 0.1 (≈ 0.267 µM) | 25 (≈ 66.8 µM) | 3.13 (≈ 8.36 µM) | 0.2 (≈ 0.534 µM) | 0.05 (≈ 0.134 µM) | 0.39 (≈ 1.04 µM) | 12.5 (≈ 33.4 µM) | 0.39 (≈ 1.04 µM) | 0.78 | 3.13 | 0.2 | Cc1c(N2CCC(C)(N)C2)c(F)c(N)c2c(=O)c(C(=O)O)cn(C3CC3)c12 (centres unmarked) [Example 18, 5-Amino-7-(3-amino-3-methyl-1-pyrrolidinyl)-1-cyclopropyl-6-fluoro-1,4-dihydro-8-methyl-4-oxoquinoline-3-carboxylic acid] | MIC [22]: 12.5 µg/mL (≈ 33.4 µM); MIC [23]: 0.05 µg/mL (≈ 0.134 µM); MIC [24]: 0.78 µg/mL (≈ 2.08 µM)

SMILES | MIC [2] [µg/mL] | MIC [3] [µg/mL] | MIC [4] [µg/mL] | MIC [5] [µg/mL] | MIC [6] [µg/mL] | MIC [7] [µg/mL] | MIC [8] [µg/mL] | MIC [9] [µg/mL] | MIC [10] [µg/mL] | MIC [11] [µg/mL] | MIC [12] [µg/mL] | MIC [13] [µg/mL] | MIC [14] [µg/mL] | MIC [15] [µg/mL] | MIC [16] [µg/mL] | MIC [17] [µg/mL] | MIC [18] [µg/mL] | MIC [19] [µg/mL] | MIC [20] [µg/mL] | MIC [21] [µg/mL] | other results
Cc1c(N2C[C@@H](N)[C@@H](C)C2)c(F)c(N)c2c(=O)c(C(=O)O)cn(C3CC3)c12 (relative stereo) [Example 14, 5-Amino-7-(cis-3-amino-4-methyl-1-pyrrolidinyl)-1-cyclopropyl-6-fluoro-1,4-dihydro-8-methyl-4-oxoquinoline-3-carboxylic acid] | 0.012 | 1.56 | 0.39 | 0.012 | 0.012 (≈ 0.032 µM) | 3.13 (≈ 8.36 µM) | 0.2 (≈ 0.534 µM) | 1.56 (≈ 4.17 µM) | 0.006 (≈ 0.016 µM) | 0.05 (≈ 0.134 µM) | 6.25 (≈ 16.7 µM) | 3.13 (≈ 8.36 µM) | 0.2 (≈ 0.534 µM) | 0.05 (≈ 0.134 µM) | 0.2 (≈ 0.534 µM) | 6.25 (≈ 16.7 µM) | 0.2 (≈ 0.534 µM) | 0.39 | 1.56 | 0.2 | Phototoxicity: number of animals with erythemas/number of animals tested [1]: 0/5; MIC [22]: 3.13 µg/mL (≈ 8.36 µM); MIC [23]: 0.025 µg/mL (≈ 0.0668 µM); MIC [24]: 0.2 µg/mL (≈ 0.534 µM)
